How the values were obtained:
LCMV-CL13 [1] = tested on: LCMV-CL13; design: species or system mice (C57BL/6); settings: mouse, in vivo
LCMV-CL13 [2] = tested on: LCMV-CL13; design: species or system mice (C57BL/6); settings: mouse, in vivo; remark: listed apart in the source
P14+ CD8 T cells = type: cell-based, mice

`COc1ccc2cc(OCC3(C(=O)O)CN(C(=O)c4ccc(F)cc4)C3)ccc2c1` [PF-04418948] was tested, and the “number of virus-specific CD8+ T cells” value (LCMV-CL13 [1]) was “increased” and the “INFγ, TNFα, and IL-2 production by CD8+ T cells stimulated with LCMV peptides GP276, GP33 and NP396” value (“INFγ, TNFα, and IL-2 production” for short) (LCMV-CL13 [2]) was “increased”.
In the case of `CC(C)Oc1ccc2c(=O)c3cc(C(=O)O)ccc3oc2c1` [AH6809], the “number of virus-specific CD8+ T cells” value (LCMV-CL13 [1]) is reported as “increased” and the “INFγ, TNFα, and IL-2 production” value (LCMV-CL13 [2]) is reported as “increased”.
In the case of `CCCCC[C@H](O)/C=C/[C@H]1[C@H](O)CC(=O)[C@@H]1C/C=C\CCCC(=O)O` [PGE2], the “inhibition of TNF-α and IL-2 production” value (P14+ CD8 T cells) is reported as 75-80%, the “production of IFN-γ, TNF-α and IL-2 (all three cytokines)” value (P14+ CD8 T cells) is reported as “suppressed” and the “effect on cytokine production” value (P14+ CD8 T cells; EP2/4 DKO P14+ CD8 T cells, 40 μM PGE2) is reported as “very little effect”.
For `CCc1nc2c(C)nc(C)cc2n1-c1ccc(CCNC(=O)NS(=O)(=O)c2ccc(C)cc2)cc1` [CJ-23423], the “number of virus-specific CD8+ T cells” value (LCMV-CL13 [1]) was “increased” and the “INFγ, TNFα, and IL-2 production” value (LCMV-CL13 [2]) was “increased”.
For `CCCCc1nn(-c2ccccc2C(F)(F)F)c(=O)n1Cc1ccc(-c2ccccc2S(=O)(=O)NC(=O)c2sccc2C)cc1` [L161,982], the “number of virus-specific CD8+ T cells” value (LCMV-CL13 [1]) was “increased” and the “INFγ, TNFα, and IL-2 production” value (LCMV-CL13 [2]) was “increased”.

— US20150004175A1, “Compositions and Methods for Reducing CTL Exhaustion” (priority 2011, published 2015)
